Source: patent US20190177774A1, “MOLECULAR REFERENCE CONTROLS” (STRECK, INC., priority 2016, published 2019)

What was measured:
Experiment in all cases: Time to stabilization (viability and sterility after addition of stabilizer)
[1] = system: E. coli; format: cell-based, Escherichia coli
Experimental: (§1) In one example, bacterial cells containing target gene sequences were stabilized with various cross-linkers and evaluated by microbiological methods. Viability and sterility were evaluated at various time points following addition of stabilizer. Time to stabilization was evaluated for particular bacteria/stabilizer combinations as shown below in Table 1.

[2] = system: N. sicca; format: cell-based, Neisseria sicca
Experimental: as §1

[3] = system: C. psuedo; format: cell-based, Corynebacterium pseudodiphtheriticum
Experimental: as §1

Row | Compound | Time to Stabilization [1] | Time to Stabilization [2] | Time to Stabilization [3]
1 | o-Phthalaldehyde | 0.25 h | 2 h | 24 h
2 | O=CCCCC=O [Glutaraldehyde] | 2 h | 2 h | 24 h
3 | C=O [Formaldehyde] | 24 h | 24 h | 24 h
4 | O=C(CCCCCCC(=O)ON1C(=O)CC(S(=O)(=O)O)C1=O)ON1C(=O)CC(S(=O)(=O)O)C1=O (centres unmarked) [Bis[sulfosuccinimidyl] Suberate] | >120 h |  | 
5 | O=C(CCCCCCC(=O)ON1C(=O)CCC1=O)ON1C(=O)CCC1=O [Disuccinimidyl Suberate] | 120 h |  | 
